Assay results from ChEMBL document CHEMBL4483862, “Open-source discovery of chemical leads for next-generation chemoprotective antimalarials” (2018).

Tested on: Plasmodium berghei
Assay: Luciferase/luciferin-expressing antifolate-resistant parasites were used to infect a culture of HepG2 cells that were pre-incubated with compounds. Infected hepatocytes emit light due to the luciferase reaction. Assay results are presented as the percent inhibition of light emission compared to control. […]
Format: functional
Conditions: sporozoite; for IC90: read-out: LUCIFERASE INFECTION ASSAY - IC90

SMILES	IC90	further results
CN(C)c1ccc(/C=C/c2cccc[n+]2C)cc1	> 9.01 µM	IC50 (HEPG2TOX_HILL_SLOPE 3.15, HEPG2TOX_R_SQUARED 0.984, PBLUC_HILL_SLOPE 12.7, PBLUC_R_SQUARED 0.413, read-out: LUCIFERASE INFECTION ASSAY - IC50): 7.92 µM
CC1=CC(C)(C)N2C(=O)C3(NCCc4c3[nH]c3ccccc43)c3cc(C)cc1c32 (configuration not stated)	3.21 µM	IC50 (HEPG2TOX_HILL_SLOPE 3.19, HEPG2TOX_R_SQUARED 0.903, PBLUC_HILL_SLOPE 11.5, PBLUC_R_SQUARED 0.604, read-out: LUCIFERASE INFECTION ASSAY - IC50): 2.66 µM
COc1ccc(-[n+]2c(-c3ccc(Br)cc3)cn3c2CCc2ccccc2-3)cc1	3.77 µM	IC50 (HEPG2TOX_HILL_SLOPE 3.09, HEPG2TOX_R_SQUARED 0.93, PBLUC_HILL_SLOPE 14.3, PBLUC_R_SQUARED 0.689, read-out: LUCIFERASE INFECTION ASSAY - IC50): 3.23 µM
COc1ccc(C(C)(O)c2nc(-c3ccccc3C)cs2)cc1 (configuration not stated)	3.04 µM	IC50 (HEPG2TOX_HILL_SLOPE 3.12, HEPG2TOX_R_SQUARED 0.895, PBLUC_HILL_SLOPE 4.56, PBLUC_R_SQUARED 0.531, read-out: LUCIFERASE INFECTION ASSAY - IC50): 1.88 µM
CC1N(C)c2ccc(/C=C/c3nc4ccccc4s3)cc2C1(C)C (configuration not stated)	4.73 µM	IC50 (HEPG2TOX_HILL_SLOPE 3.14, HEPG2TOX_R_SQUARED 0.947, PBLUC_HILL_SLOPE 1.36, 1.57, PBLUC_R_SQUARED 0.638, 0.693, read-out: LUCIFERASE INFECTION ASSAY - IC50): 1.03 µM
COc1ccc(NC(=O)c2ccn[nH]2)cc1NC(=O)c1ccc(Cl)cc1F	4.87 µM	IC50 (HEPG2TOX_HILL_SLOPE 3.17, HEPG2TOX_R_SQUARED 0.943, PBLUC_HILL_SLOPE 8.03, PBLUC_R_SQUARED 0.294, read-out: LUCIFERASE INFECTION ASSAY - IC50): 3.7 µM
CS(=O)(=O)Nc1ccc(-c2csc(Nc3ccccn3)n2)cc1	9.68 µM	IC50 (HEPG2TOX_HILL_SLOPE 3.13, HEPG2TOX_R_SQUARED 0.99, PBLUC_HILL_SLOPE 12.3, PBLUC_R_SQUARED 0.0453, read-out: LUCIFERASE INFECTION ASSAY - IC50): 8.1 µM
CC(=O)Nc1ccc2c(Cn3ncc(Cl)c(Cl)c3=O)cc(=O)oc2c1	9.76 µM	IC50 (HEPG2TOX_HILL_SLOPE 3.1, HEPG2TOX_R_SQUARED 0.966, PBLUC_HILL_SLOPE 14.3, 0.748, PBLUC_R_SQUARED 0.481, 0.667, read-out: LUCIFERASE INFECTION ASSAY - IC50): 5.45 µM
O=C(Nc1ncc(Cc2ccccc2)s1)c1ccc2nc[nH]c2c1	> 10 µM	IC50 (HEPG2TOX_HILL_SLOPE 3.11, HEPG2TOX_R_SQUARED 0.961, PBLUC_HILL_SLOPE 3.02, PBLUC_R_SQUARED 0.464, read-out: LUCIFERASE INFECTION ASSAY - IC50): 5.71 µM
CN1C(=O)N(Cc2ccc3ccccc3c2)C(=O)C12CCN(Cc1ccc(C#CC(C)(C)O)cc1)CC2	2.84 µM	IC50 (HEPG2TOX_HILL_SLOPE 3.16, HEPG2TOX_R_SQUARED 0.979, PBLUC_HILL_SLOPE 9.91, PBLUC_R_SQUARED 0.437, read-out: LUCIFERASE INFECTION ASSAY - IC50): 2.27 µM
CNc1nc2cnc(Nc3ccc(C(F)(F)F)cc3)cc2n1Cc1ccccc1	> 10 µM	IC50 (HEPG2TOX_HILL_SLOPE 3.2, HEPG2TOX_R_SQUARED 0.033, read-out: LUCIFERASE INFECTION ASSAY - IC50): > 10 µM
FC(F)(F)c1nc2ccccc2c2nnc(-c3ccc(Cl)cc3)n12	3.88 µM	IC50 (HEPG2TOX_HILL_SLOPE 3.1, HEPG2TOX_R_SQUARED 0.959, PBLUC_HILL_SLOPE 22, PBLUC_R_SQUARED 0.45, read-out: LUCIFERASE INFECTION ASSAY - IC50): 3.51 µM
c1ccc(-c2ccc3ncc(-c4cccnc4)n3n2)cc1	3.68 µM	IC50 (HEPG2TOX_HILL_SLOPE 3.18, HEPG2TOX_R_SQUARED 0.875, PBLUC_HILL_SLOPE 8.44, PBLUC_R_SQUARED 0.581, read-out: LUCIFERASE INFECTION ASSAY - IC50): 2.84 µM
COc1ccc(OC)c(NC(=O)c2ccc(NC3=C(Cl)C(=O)N(C4CCCCC4)C3=O)cc2)c1	8.05 µM	IC50 (HEPG2TOX_HILL_SLOPE 3.19, HEPG2TOX_R_SQUARED 0.935, PBLUC_HILL_SLOPE 2.39, PBLUC_R_SQUARED 0.579, read-out: LUCIFERASE INFECTION ASSAY - IC50): 3.21 µM
COc1ccc(-c2csc(N/C=C3/C(=O)NC(=O)c4ccccc43)n2)cc1OC	8.15 µM	IC50 (HEPG2TOX_HILL_SLOPE 3.11, HEPG2TOX_R_SQUARED 0.952, PBLUC_HILL_SLOPE 3, PBLUC_R_SQUARED 0.801, read-out: LUCIFERASE INFECTION ASSAY - IC50): 3.92 µM
CC(c1cccc(NC(=O)c2ccccc2)c1)N(C)c1ccc([N+](=O)[O-])cn1 (configuration not stated)	1.3 µM	IC50 (HEPG2TOX_HILL_SLOPE 3.15, HEPG2TOX_R_SQUARED 0.897, PBLUC_HILL_SLOPE 11.5, PBLUC_R_SQUARED 0.814, read-out: LUCIFERASE INFECTION ASSAY - IC50): 1.08 µM

SMILES	IC90	further results
Cc1cc2occ(CC(=O)Nc3sccc3C(N)=O)c2cc1C(C)C	4.1 µM	IC50 (HEPG2TOX_HILL_SLOPE 3.18, 2.30, HEPG2TOX_R_SQUARED 0.297, 0.732, PBLUC_HILL_SLOPE 15.1, PBLUC_R_SQUARED 0.252, read-out: LUCIFERASE INFECTION ASSAY - IC50): 3.55 µM
CC1N(C)c2ccc(/C=C/c3sc4ccccc4[n+]3C)cc2C1(C)C (configuration not stated)	4.5 µM	IC50 (HEPG2TOX_HILL_SLOPE 3.18, HEPG2TOX_R_SQUARED 0.945, PBLUC_HILL_SLOPE 1.61, PBLUC_R_SQUARED 0.672, read-out: LUCIFERASE INFECTION ASSAY - IC50): 1.15 µM
CNc1nc2cnc(Nc3ccc(OC(F)(F)F)cc3)cc2n1Cc1ccccc1	5.21 µM	IC50 (HEPG2TOX_HILL_SLOPE 3.1, HEPG2TOX_R_SQUARED 0.978, PBLUC_HILL_SLOPE 7.5, PBLUC_R_SQUARED 0.303, read-out: LUCIFERASE INFECTION ASSAY - IC50): 3.88 µM
COc1cc(OC)cc(-c2cc3c(Nc4ccc(OC)c(OC)c4)nccc3[nH]2)c1	6.83 µM	IC50 (HEPG2TOX_HILL_SLOPE 3.11, HEPG2TOX_R_SQUARED 0.652, PBLUC_HILL_SLOPE 1.69, PBLUC_R_SQUARED 0.756, read-out: LUCIFERASE INFECTION ASSAY - IC50): 1.86 µM
CC(C)c1ccccc1N(C(=O)c1cc2ccccc2o1)c1nc2ccccc2s1	> 10 µM	IC50 (HEPG2TOX_HILL_SLOPE 3.13, HEPG2TOX_R_SQUARED 0.898, read-out: LUCIFERASE INFECTION ASSAY - IC50): > 10 µM
CCOc1cccc2c(C)nc(Nc3nc(=O)c4ccccc4[nH]3)nc12	7.27 µM	IC50 (HEPG2TOX_HILL_SLOPE 3.19, HEPG2TOX_R_SQUARED 0.9, PBLUC_HILL_SLOPE 4.13, PBLUC_R_SQUARED 0.554, read-out: LUCIFERASE INFECTION ASSAY - IC50): 4.27 µM
c1ccc2cc(-c3cnc4ccc(NCc5ccncc5)nn34)ccc2c1	4.49 µM	IC50 (HEPG2TOX_HILL_SLOPE 3.1, HEPG2TOX_R_SQUARED 0.978, PBLUC_HILL_SLOPE 7.42, PBLUC_R_SQUARED 0.525, read-out: LUCIFERASE INFECTION ASSAY - IC50): 3.34 µM
O=C(Nc1ccc(SC(F)(F)F)cc1)Nc1ccc(Sc2ccc(Cl)cc2)nc1	5.24 µM	IC50 (HEPG2TOX_HILL_SLOPE 3.12, HEPG2TOX_R_SQUARED 0.943, PBLUC_HILL_SLOPE 7.91, PBLUC_R_SQUARED 0.378, read-out: LUCIFERASE INFECTION ASSAY - IC50): 3.97 µM
CCOC(=O)c1c(C)[nH]c(C(=O)COC(=O)c2[nH]nc3ccccc23)c1C	> 10 µM	IC50 (HEPG2TOX_HILL_SLOPE 3.07, HEPG2TOX_R_SQUARED 0.979, PBLUC_HILL_SLOPE 5.58, PBLUC_R_SQUARED 0.622, read-out: LUCIFERASE INFECTION ASSAY - IC50): 8.71 µM
COc1cc(-c2nc3ccc(NC(=O)Nc4ccc(C)cc4)cn3n2)cc(OC)c1OC	2.87 µM	IC50 (HEPG2TOX_HILL_SLOPE 3.16, HEPG2TOX_R_SQUARED 0.688, PBLUC_HILL_SLOPE 3.03, PBLUC_R_SQUARED 0.446, read-out: LUCIFERASE INFECTION ASSAY - IC50): 1.39 µM
CC(C(=O)Nc1ccc(S(N)(=O)=O)cc1)N1CCC(CCc2ccccc2)CC1 (configuration not stated)	> 10 µM	IC50 (HEPG2TOX_HILL_SLOPE 3.11, HEPG2TOX_R_SQUARED 0.733, PBLUC_HILL_SLOPE 2.39, PBLUC_R_SQUARED 0.628, read-out: LUCIFERASE INFECTION ASSAY - IC50): 5.36 µM
COc1cccc(-c2cnn3ccc(Nc4ccc(NS(=O)(=O)c5ccc(C)cc5)cc4)nc23)c1	> 6.8 µM	IC50 (HEPG2TOX_HILL_SLOPE 3.16, HEPG2TOX_R_SQUARED 0.917, PBLUC_HILL_SLOPE 15.1, PBLUC_R_SQUARED 0.0764, read-out: LUCIFERASE INFECTION ASSAY - IC50): 6.21 µM
c1csc(-c2cnc3ccc(-c4cccc5ncccc45)nn23)c1	5.26 µM	IC50 (HEPG2TOX_HILL_SLOPE 3.19, HEPG2TOX_R_SQUARED 0.792, PBLUC_HILL_SLOPE 2.95, PBLUC_R_SQUARED 0.78, read-out: LUCIFERASE INFECTION ASSAY - IC50): 2.49 µM
COc1cc(OC)cc(-c2cn3c(-c4ccc5c(ccn5C)c4)cnc3cn2)c1	0.163 µM	IC50 (HEPG2TOX_HILL_SLOPE 3.11, HEPG2TOX_R_SQUARED 0.612, PBLUC_HILL_SLOPE 2.08, PBLUC_R_SQUARED 0.748, read-out: LUCIFERASE INFECTION ASSAY - IC50): 0.0568 µM
CCN1C(=O)N(Cc2cccc(OC)c2)C(=O)C12CCN(Cc1cc3ccccc3s1)CC2	> 7.12 µM	IC50 (HEPG2TOX_HILL_SLOPE 3.09, HEPG2TOX_R_SQUARED 0.881, PBLUC_HILL_SLOPE 9.24, PBLUC_R_SQUARED 0.267, read-out: LUCIFERASE INFECTION ASSAY - IC50): 6.06 µM
